The text below walks through data of paper PMC9403717, “Ruthenium complexes show potent inhibition of AKR1C1, AKR1C2, and AKR1C3 enzymes and anti-proliferative action against chemoresistant ovarian cancer cell line” (Frontiers in Pharmacology, 2022).

pIC50: −log10 of the molar value. “And” between values parts separate entries of the source, which are not always exact repeats. Identical values can stand only once.

Holding throughout (format): cell-based, human
In data set [1] the test system is COV362 cells. Kind of data set: Cell proliferation assay (alamarBlue), chemoresistant ovarian cancer cell line COV362. The note with it: for pIC50: 48 h incubation. As for the experimental part:
(§1) The cell line COV362 (CVCL_2,420) was originally established from a high-grade ovarian serous adenocarcinoma from a metastatic site in the pleural effusion ([van den Berg-Bakker et al., 1993]) and was purchased from ECACC (ECACC 07071910) as p37 on 13 October 2017. The growth medium for COV362 cells was DMEM (D5546; Sigma–Aldrich GmbH), with 10% FBS (F9665; Sigma–Aldrich GmbH) and 2 mM L-glutamine (G7513; Sigma–Aldrich GmbH). COV362 cells in passages p37 + 12 to p37 + 17 were used in this study and seeded at a concentration of 3.5 cells/ml × 10^4 cells/ml for proliferation studies and at a concentration of 5.3 × 10^5/ml for migration studies. The cell line OVCAR-4 (CVCL_1,627) is a high-grade serous ovarian adenocarcinoma cell line established from a patient refractory to cisplatin ([Johnson et al., 1997]). The cell line was purchased from Merck on 19 March 2021. The growth medium for OVCAR-4 cells was RPMI-1640 (Sigma R5586) supplemented with 2 mM glutamine (G7513; Sigma–Aldrich GmbH), 10% FBS (F9665; Sigma–Aldrich GmbH), 0.25 μg/ml insulin (I9278; Sigma–Aldrich GmbH). OVCAR-4 cells in passages p+6 to p+15 were used in this study and seeded at a concentration of 6 cells/ml × 10^4 cells/ml. The control cell line HIO80 (CVCL_E274) was obtained from Andrew K. Godwin (University of Kansas Medical Center, Kansas, United States) on 20 October 2017 as p+72. It was originally established from ovarian surface epithelium ([Yang et al., 2004]). HIO80 cells were grown in RPMI medium (R5886, Sigma–Aldrich GmbH) supplemented with 10% FBS (F9665; Sigma–Aldrich GmbH), 2 mm L-glutamine (G7513; Sigma–Aldrich GmbH) and 6.6 µg/ml insulin (I9278; Sigma–Aldrich GmbH). HIO80 cells in passages p72 + 8 to p72 + 19 were used in this study and seeded at a concentration of 2 × 10^4 cells/mL. HIO80 in passage +10 was authenticated by short tandem repeats (STR) profiling performed by ATCC on 22 February 2019. Cells were grown in a humidified atmosphere containing 5% CO2 at 37°C. All cell lines were negative for mycoplasma infection which was periodically tested using MycoAlert^TM mycoplasma detection kit (Lonza, Basel, Switzerland).
(§2) The effect of ruthenium compounds on the proliferation of ovarian cancer cell lines COV362 and OVCAR-4 and the control cell line HIO80 was analyzed using the cell proliferation reagent alamarBlue HS (A50101; Thermo Fisher Scientific) following the manufacturer’s instructions.
(§3) Cells were seeded in 96-well plates in 100 µL of medium and allowed to adhere and grow for 24 h. […] Cisplatin and carboplatin purchased from Sigma–Aldrich GmbH (cat. number: PHR1624, lot: LRAB7778) and (cat. number: C2538, lot: MKCK1243) were dissolved in sterile water. Working solutions were prepared by a serial dilution of stock solutions with a culture medium. After the initial incubation, cells were treated with ruthenium complexes, cisplatin, and carboplatin. A range of final concentrations between 0.001 and 300 µM were used for ruthenium complexes and cisplatin, and between 0.001 µM and 1 mM for carboplatin. After 48 h of incubation, plates were incubated with 20 µL of alamarBlue. After 4 h absorbance was measured with a BioTek microplate spectrophotometer at 570 nm, with the reference wavelength set at 600 nm. First, the background value of a well containing the active substance without cells was subtracted, then the average values for duplicates/triplicates were calculated. The absorbance of the well containing only untreated cells was used as a normalization control. The half-maximal […] concentration (IC50) was determined for all ruthenium complexes with a growth-inhibiting effect on cells by constructing a dose-response curve (Graph Pad Prism, Version 8.0).
(In general: Resazurin is reduced to fluorescent resorufin, in cell work by metabolically active cells.)

Data set [2] relates to COV362 cells. Put plainly: Cell migration assay (Ibidi culture inserts), COV362. The note with it: 100 μM; for effect on cell migration (in words): 24 and 48 h. Here is the method: Cell migration assay was performed using Ibidi® three-well culture inserts. The inserts were placed in six-well plates. In total, 70 µL of cell suspension was seeded in the inserts and allowed to adhere and grow for 24 h. When the cells formed a confluent monolayer, the inserts were carefully removed and the cells were washed two times with DPBS. Cells were treated with 100 μM (final concentration) of compounds 8, 9, cisplatin, and carboplatin in 2 ml of growth medium. Cells treated with a medium containing the same volume of sterile water or DMSO were used as the controls. Images of cell gaps were taken with Axio Scope A1 Polarized Light Microscope (Zeiss) at the time of treatment, 24 and 48 h after, and analyzed using ImageJ software.

Another data set relates to OVCAR-4 cells. Put plainly: Cell proliferation assay (alamarBlue), OVCAR-4. Conditions: for pIC50: OVCAR-4, 48 h incubation. Here is the method: as §1, §2, §3

As to `Cc1ccc(C(C)C)cc1.O=C(C=C([O][Ru][Cl])c1ccc2c(c1)OCO2)C(F)(F)F` [Compound 5], the pIC50 (commonly the IC50 on a negative log10 scale, so that one unit is a factor of ten) in the data set on COV362 cells [1] was 3.87.

As to `Cc1ccc(C(C)C)cc1.O=[N+]([O-])c1ccc([O][Ru][Cl])c2ncccc12` [Compound 9, (η ^6-p-Cymene) (nitroxolinato)chloridoruthenium (II)], the “effect on cell migration (in words)” value in the data set on COV362 cells [2] was “prevented migration”. Also, the “cytotoxic effect in migration assay (in words)” value in the data set on COV362 cells [2] (after 48 h incubation) is “cytotoxic effect”. The same compound gave a pIC50 in the data set on COV362 cells [1] of 4.67. In the data set with OVCAR-4 cells, the “fold lower IC50 value on OVCAR-4 compared to COV362” value is given as 1.5 fold and the negative logarithm of the IC50 (pIC50) is 4.84.

For the compound `C1N2CN3CN1CP(C2)C3.Cc1ccc(C(C)C)cc1.F[P-](F)(F)(F)(F)F.O=[N+]([O-])c1ccc([O][Ru+])c2ncccc12` [Compound 10, (η ^6-p-cymene)(nitroxolinato)(pta)ruthenium(II) hexafluorophosphate], in the data set on COV362 cells [1], the “effect on proliferation (in words)” value was “inactive” and the pIC50 was below 3.70.

Take `Cc1ccc(C(C)C)cc1.[Cl-].[O-]c1c(I)cc(Cl)c2cccnc12.[Ru+2]` [Compound 7]: the pIC50 in the data set with COV362 cells [1] is 4.75. Also, in the data set with OVCAR-4 cells, the “fold higher IC50 value on OVCAR-4 compared to COV362” value came to 1.6 fold and the pIC50 is 4.55.

For `C1N2CN3CN1CP(C2)C3.Cc1ccc(C(C)C)cc1.F[P-](F)(F)(F)(F)F.[O-]c1c(I)cc(Cl)c2cccnc12.[Ru+2]` [Compound 8], the “effect on cell migration (in words)” value in the data set with COV362 cells [2] is “inhibited cell migration similarly to cisplatin”. The same compound gave a pIC50 in the data set on COV362 cells [1] of 4.42. For the same compound, in the data set with OVCAR-4 cells, the “fold higher IC50 value on OVCAR-4 compared to COV362” value came out at 2.6 fold and the pIC50 was 4.01.

As for `C1N2CN3CN1CP(C2)C3.Cc1ccc(C(C)C)cc1.F[P-](F)(F)(F)(F)F.O=C(C=C([O][Ru+])c1ccc2c(c1)OCO2)C(F)(F)F` [Compound 6], the pIC50 in the data set with COV362 cells [1] was 3.82.

In the case of `C1N2CN3CN1CP(C2)C3.Cc1ccc(C(C)C)cc1.F[P-](F)(F)(F)(F)F.O=C(C=C([O][Ru+])c1ccc(I)cc1)C(F)(F)F` [Compound 2], the pIC50 with COV362 cells [1] was 3.85.

As for `CN(C)c1ccc(C(=CC(=O)C(F)(F)F)[O][Ru][Cl])cc1.Cc1ccc(C(C)C)cc1` [Compound 3, (η^6-p-cymene)chlorido(4,4,4-trifluoro-1-(4-(dimethylamino)phenyl)-1,3-butandionato)ruthenium(II)], the pIC50 in the data set with COV362 cells [1] is > 4.00 and 4.04.

Compound `Cc1ccc(C(C)C)cc1.O=C(C=C([O][Ru][Cl])c1ccc(I)cc1)C(F)(F)F` [Compound 1] showed a pIC50 in the data set with COV362 cells [1] of 4.02.
